Test results reported in patent US11591604B2, “Gene expression in Bacteroides” (Massachusetts Institute of Technology, priority 2015, dated 2023).

What follows are substances tested on NanoLuc (assay: NanoLuc luciferase reporter expression from constitutive promoters and RBSs integrated with pNBU2). Details: RBS combined with promoter PBT1311, NanoLuc reporter, three biological replicates.
Format: cell-based, B. thetaiotaomicron
Source text: FIGS. 1A-1G. Genetic parts to control expression in B. thetaiotaomicron. (FIG. 1A) The ranges of gene expression are shown for the different gene regulation systems provided herein. (FIG. 1B) IntN2 catalyzes stable integration of pNBU2-based expression constructs into one of two attBT2 sites in the B. thetaiotaomicron genome. The two attBT2 sites (attBT2-1 at nucleotide (nt) 6,217,227 and attBT2-2 at nt 6,138,320) are in the 3′ ends of tRNA^Ser genes (BT_t71 and BT_t70, respectively). (FIG. 1C) Constitutive promoters and ribosome binding sites for the construction of gene expression libraries. The putative −33 and −7 regions of the PBT1311 promoter, the Shine-Delgarno sequence, and the start codon are indicated by black boxes. Numbers below the black boxes represent nucleotide locations relative the PBT1311 transcription start site. The 26 nt sequences introduced in the PAM promoters are shown (see also FIGS. 6A-6B). Numbers at the edges of the boxes indicate the PBT1311 nucleotides replaced or the insertion site within the promoter. The location of residues randomized in the rpiL* RBS library are indicated with gray arrows (for library A: nt −14, −13, −12; for library B: nt −21, −18, −15; and for library C: nt −17, −16, −11; nt numbering is relative to the translation start site). (FIG. 1D) Activity was measured for a set of constitutive promoters and their cognate RBSs. Furthermore, a set of constitutive promoters (PBT1311, PAM1, PAM2, PAM3, PAM4) was combined with RBSs of varying strengths. Gene expression was measured using a luciferase reporter (NanoLuc). (FIG. 1E) Three large RBS libraries were constructed and combined with promoter PBT1311 to span 10^3-fold in gene expression. For reference, the parent rpiL* RBS is indicated with a black arrow. For D and E, error bars represent the standard deviation of three independent biological replicates made on separate days. (FIG. 1F) The strength of each RBS was compared to the predicted free energy of folding for the mRNA (ΔGfold,). (FIG. 1G) Strong (SEQ ID NO: 210) and weak (SEQ ID NO: 211) consensus sequences for the rpiL* −21 to −11 RBS region targeted by mutagenesis (residue locations are stated relative to the translation start site) are provided. Frequency logos were generated for the 11 strongest and 11 weakest RBSs by comparing the frequency of each nucleotide at each position in that group with the frequency of that nucleotide in that position in the full library. Position −20 and −19 were not randomized and are thus are not shown in the frequency logos.
All genetic parts in this study were characterized using the integration vector pNBU2 to ensure genetic stability of the constructs (FIG. 1B). The pNBU2 plasmid encodes the intN2 tyrosine integrase, which mediates sequence-specific recombination between the attN site of pNBU2 and one of two attBT sites located in the 3′ ends of the two tRNA^Ser genes, BT_t70 and BT_t71, on the B. thetaiotaomicron chromosome (FIG. 1B). Insertion of the pNBU2 plasmid inactivates the tRNA^Ser gene, and simultaneous insertion into both BT_t70 and BT_t71 is unlikely due to the essentiality of tRNA^Ser. pNBU2-based vectors have been used for single-copy complementation in B. thetaiotaomicron in in vitro studies (Koropatkin N M et al. Nat. Rev. Microbiol. 10:323-35, 2012) and in vivo mouse models (Martens E C et al. Cell Host Microbe 4:447-57, 2008).
B. thetaiotaomicron genetic parts were characterized with NanoLuc luciferase (Hall M P et al. ACS Chem. Biol. 7:1848-1857, 2012), which is a small (19 kDa) modified shrimp luciferase. Efforts to use members of the green fluorescent protein family and a FMN-based fluorescent reporter were not successful. NanoLuc oxidizes the exogenously-added substrate furimazine to produce glow-type bioluminescence (Emax=460 nm) with a signal half-life of 2 hr. […]

Q: Which “Average Luminescence (RLU/CFU)” value does the source give for “A2: RBS, SEQ ID NO: 15 (DNA TCCCGCATTTTAAAATAAAATAAATTATTTTTTTACTTAAACGAAT; chemistry not fully specified)” here?
A: 0.03616 RLU/CFU

Q: How did the “Average Luminescence (RLU/CFU)” value turn out when “A3: RBS, SEQ ID NO: 24 (DNA TCCCGCATTTTAAAATAAAATAAATTATTAGTTTAGTTAAACGAAT; chemistry not fully specified)” was run?
A: 0.02867 RLU/CFU

Q: With “A4: RBS, SEQ ID NO: 29 (DNA TCCCGCATTTTAAAATAAAATAAATTATTAATTTAATTAAACGAAT; chemistry not fully specified)” as the substance, how does the “Average Luminescence (RLU/CFU)” value read?
A: 0.02664 RLU/CFU

Q: “A5: RBS, SEQ ID NO: 32 (DNA TCCCGCATTTTAAAATAAAATAAATTATTTCTTTACTTAAACGAAT; chemistry not fully specified)” was tested. Which “Average Luminescence (RLU/CFU)” value did it give?
A: 0.02579 RLU/CFU

Q: For “A6: RBS, SEQ ID NO: 33 (DNA TCCCGCATTTTAAAATAAAATAAATTATTTCTTTAATTAAACGAAT; chemistry not fully specified)”, which “Average Luminescence (RLU/CFU)” value is on record?
A: 0.0256 RLU/CFU

Q: How did the “Average Luminescence (RLU/CFU)” value turn out when “A7: RBS, SEQ ID NO: 34 (DNA TCCCGCATTTTAAAATAAAATAAATTATTAGTTTAATTAAACGAAT; chemistry not fully specified)” was run?
A: 0.02467 RLU/CFU

Q: With “A8: RBS, SEQ ID NO: 44 (DNA TCCCGCATTTTAAAATAAAATAAATTATTAGTTTATTTAAACGAAT; chemistry not fully specified)” as the substance, how does the “Average Luminescence (RLU/CFU)” value read?
A: 0.02026 RLU/CFU

Q: “A9: RBS, SEQ ID NO: 46 (DNA TCCCGCATTTTAAAATAAAATAAATTATTGTTTTACTTAAACGAAT; chemistry not fully specified)” was tested. Which “Average Luminescence (RLU/CFU)” value did it give?
A: 0.0186 RLU/CFU

Q: With “A10: RBS, SEQ ID NO: 49 (DNA TCCCGCATTTTAAAATAAAATAAATTATTGCTTTAGTTAAACGAAT; chemistry not fully specified)” as the substance, how does the “Average Luminescence (RLU/CFU)” value read?
A: 0.01835 RLU/CFU

Q: For “A12: RBS, SEQ ID NO: 56 (DNA TCCCGCATTTTAAAATAAAATAAATTATTGTTTTAATTAAACGAAT; chemistry not fully specified)”, which “Average Luminescence (RLU/CFU)” value is on record?
A: 0.01552 RLU/CFU

Q: With “A13: RBS, SEQ ID NO: 58 (DNA TCCCGCATTTTAAAATAAAATAAATTATTGATTTACTTAAACGAAT; chemistry not fully specified)” as the substance, how does the “Average Luminescence (RLU/CFU)” value read?
A: 0.01484 RLU/CFU

Q: “A14: RBS, SEQ ID NO: 59 (DNA TCCCGCATTTTAAAATAAAATAAATTATTTCTTTATTTAAACGAAT; chemistry not fully specified)” was tested. Which “Average Luminescence (RLU/CFU)” value did it give?
A: 0.01475 RLU/CFU

Q: How did the “Average Luminescence (RLU/CFU)” value turn out when “A15: RBS, SEQ ID NO: 64 (DNA TCCCGCATTTTAAAATAAAATAAATTATTATTTTACTTAAACGAAT; chemistry not fully specified)” was run?
A: 0.01335 RLU/CFU

Q: With “A16: RBS, SEQ ID NO: 65 (DNA TCCCGCATTTTAAAATAAAATAAATTATTTATTTACTTAAACGAAT; chemistry not fully specified)” as the substance, how does the “Average Luminescence (RLU/CFU)” value read?
A: 0.01329 RLU/CFU

Q: Which “Average Luminescence (RLU/CFU)” value does the source give for “A17: RBS, SEQ ID NO: 66 (DNA TCCCGCATTTTAAAATAAAATAAATTATTTTTTTAGTTAAACGAAT; chemistry not fully specified)” here?
A: 0.013 RLU/CFU

Q: “A18: RBS, SEQ ID NO: 69 (DNA TCCCGCATTTTAAAATAAAATAAATTATTCATTTATTTAAACGAAT; chemistry not fully specified)” was tested. Which “Average Luminescence (RLU/CFU)” value did it give?
A: 0.01237 RLU/CFU

Q: With “A19: RBS, SEQ ID NO: 70 (DNA TCCCGCATTTTAAAATAAAATAAATTATTTTTTTATTTAAACGAAT; chemistry not fully specified)” as the substance, how does the “Average Luminescence (RLU/CFU)” value read?
A: 0.01206 RLU/CFU

Q: Which “Average Luminescence (RLU/CFU)” value does the source give for “A20: RBS, SEQ ID NO: 71 (DNA TCCCGCATTTTAAAATAAAATAAATTATTTATTTATTTAAACGAAT; chemistry not fully specified)” here?
A: 0.01179 RLU/CFU

Q: How did the “Average Luminescence (RLU/CFU)” value turn out when “A21: RBS, SEQ ID NO: 73 (DNA TCCCGCATTTTAAAATAAAATAAATTATTTATTTACTTAAACGAAT; chemistry not fully specified)” was run?
A: 0.01018 RLU/CFU

Q: With “A22: RBS, SEQ ID NO: 78 (DNA TCCCGCATTTTAAAATAAAATAAATTATTGCTTTATTTAAACGAAT; chemistry not fully specified)” as the substance, how does the “Average Luminescence (RLU/CFU)” value read?
A: 0.009586 RLU/CFU

Q: With “A23: RBS, SEQ ID NO: 79 (DNA TCCCGCATTTTAAAATAAAATAAATTATTAGTTTACTTAAACGAAT; chemistry not fully specified)” as the substance, how does the “Average Luminescence (RLU/CFU)” value read?
A: 0.009507 RLU/CFU

Q: “A24: RBS, SEQ ID NO: 83 (DNA TCCCGCATTTTAAAATAAAATAAATTATTCTTTTACTTAAACGAAT; chemistry not fully specified)” was tested. Which “Average Luminescence (RLU/CFU)” value did it give?
A: 0.009158 RLU/CFU

Q: With “A25: RBS, SEQ ID NO: 84 (DNA TCCCGCATTTTAAAATAAAATAAATTATTCCTTTAATTAAACGAAT; chemistry not fully specified)” as the substance, how does the “Average Luminescence (RLU/CFU)” value read?
A: 0.008671 RLU/CFU

Q: “A26: RBS, SEQ ID NO: 87 (DNA TCCCGCATTTTAAAATAAAATAAATTATTACTTTATTTAAACGAAT; chemistry not fully specified)” was tested. Which “Average Luminescence (RLU/CFU)” value did it give?
A: 0.008113 RLU/CFU

Q: For “A27: RBS, SEQ ID NO: 89 (DNA TCCCGCATTTTAAAATAAAATAAATTATTGGTTTAGTTAAACGAAT; chemistry not fully specified)”, which “Average Luminescence (RLU/CFU)” value is on record?
A: 0.007908 RLU/CFU

Q: “A28: RBS, SEQ ID NO: 94 (DNA TCCCGCATTTTAAAATAAAATAAATTATTCTTTTATTTAAACGAAT; chemistry not fully specified)” was tested. Which “Average Luminescence (RLU/CFU)” value did it give?
A: 0.006884 RLU/CFU

Q: “A29: RBS, SEQ ID NO: 95 (DNA TCCCGCATTTTAAAATAAAATAAATTATTCCTTTATTTAAACGAAT; chemistry not fully specified)” was tested. Which “Average Luminescence (RLU/CFU)” value did it give?
A: 0.006833 RLU/CFU

Q: For “A30: RBS, SEQ ID NO: 101 (DNA TCCCGCATTTTAAAATAAAATAAATTATTCCTTTACTTAAACGAAT; chemistry not fully specified)”, which “Average Luminescence (RLU/CFU)” value is on record?
A: 0.005604 RLU/CFU

Q: How did the “Average Luminescence (RLU/CFU)” value turn out when “A31: RBS, SEQ ID NO: 103 (DNA TCCCGCATTTTAAAATAAAATAAATTATTGGTTTATTTAAACGAAT; chemistry not fully specified)” was run?
A: 0.005462 RLU/CFU

Q: “A32: RBS, SEQ ID NO: 104 (DNA TCCCGCATTTTAAAATAAAATAAATTATTCTTTTAGTTAAACGAAT; chemistry not fully specified)” was tested. Which “Average Luminescence (RLU/CFU)” value did it give?
A: 0.005311 RLU/CFU

Q: “A33: RBS, SEQ ID NO: 106 (DNA TCCCGCATTTTAAAATAAAATAAATTATTTCTTTAGTTAAACGAAT; chemistry not fully specified)” was tested. Which “Average Luminescence (RLU/CFU)” value did it give?
A: 0.005258 RLU/CFU

Q: How did the “Average Luminescence (RLU/CFU)” value turn out when “A34: RBS, SEQ ID NO: 107 (DNA TCCCGCATTTTAAAATAAAATAAATTATTTGTTTACTTAAACGAAT; chemistry not fully specified)” was run?
A: 0.005181 RLU/CFU

Q: Which “Average Luminescence (RLU/CFU)” value does the source give for “A35: RBS, SEQ ID NO: 110 (DNA TCCCGCATTTTAAAATAAAATAAATTATTCATTTAGTTAAACGAAT; chemistry not fully specified)” here?
A: 0.004513 RLU/CFU
